Laboratory results reported in patent US20240270737A1, “SMALL MOLECULAR INHIBITORS OF STING SIGNALING COMPOSITIONS AND METHODS OF USE” (STINGINN INC., priority 2021, published 2024).

Test system: STING activation, Cxcl10
Assay: STING activation in MEFs stimulated with ISD (qPCR of Cxcl10, Western blot, confocal)
Type: cell-based, mouse
Description: FIG. 1E are photographs showing Western blot analysis in murine fibroblasts (MEFs) treated the same as FIG. 1A, according to an embodiment of the invention;
FIG. 1F are photographs showing confocal analysis in MEFs treated the same as FIG. 1A, according to an embodiment of the invention;
MEFs were treated with W1 and then stimulated with cytoplasmic DNA (ISD) and examined Cxcl10 expression by qPCR and STING-dependent phosphorylation of TBK1 and IRF3.
Mouse embryonic fibroblasts (MEFs) were obtained from E13.5 embryos by a standard procedure. Bone Marrow Derived Macro-phages (BMDM) were isolated from hind-limb femurs of 8-10 weeks old WT and Trex1 KO (TKO) mice. The hematopoietic cells from the bone marrow were cultured in complete DMEM (Invitrogen) including 10 ng/ml of Mouse Recombinant Colony-Stimulating Factor (M-CSF, R&D Systems) for 10 to 14 days.
Quantitative Real time PCR (qPCR) Total RNA were reverse-transcribed using M-MLV Reverse Transcriptase (Promega). Real-time PCR was performed using Taqman Gene Expression Assay (Applied Biosystems) for innate immune genes and inflammatory cytokines.

Cc1cc([N+](=O)[O-])ccc1S(=O)(=O)Nc1nc2cc(C(F)(F)F)ccc2[nH]1 [Compound W1, 2-methyl-4-nitro-N-[5-(trifluoromethyl)-1H-1,3-benzodiazol-2-yl]benzene-1-sulfonamide]
production of STING-inducible cytokine Cxcl10 in response to ISD: dramatically decreased
